Measured values as given in patent publication US5183821A, “Method for treating leukemias using N-(2-dimethylaminoethyl)-3-amino-1,8-naphthalimide for treating leukemias and solid tumors” (priority 1991, dated 1993).
Converted amounts (≈) assume the structure as drawn.

Tests used:
leukemia P388 = experiment: NCI studies against leukemia P388 (Appendix 1, MDA and T/C); type: in vivo, murine; details: for response vs control in vivo at 30 mg/kg: P388, dose 30,00 mg/kg; for response vs control in vivo at 60 mg/kg: P388, dose 60,00 mg/kg; for response vs control in vivo at 120 mg/kg: P388, dose 120,00 mg/kg; for response vs control in vivo at 240 mg/kg: P388, dose 240,00 mg/kg; for minimal effective dose: P388; for minimal effective dose / MDA against leukemia P388: minor active dose reaching T/C≥120; for STATUS (activity against leukemia P388): at the dose of the same line of the appendix table
Excerpt: On the other hand, murine transplantable leukemias are a good predictor of anti-leukemia activity in human beings (Kenis "Dose schedules and mode of administration of chemotherapeutic agents in man". Recent Results Cancer Res. 21, 54-61 (1969). Only those tests which use the survival times as an activity parameter are valid as predictors of antileukemia activity in human beings (for instance, leukemia p388 y L-1210), whilst "in vitro" tests (HeLa cells and other) are inappropriate (Llombart-Rodriguez, 1983). NCI data generated in the last years confirm the value of above assertions to compounds of general formula [drawing 1] as described in U.S. Pat. No. 4,204,063.
Experimental results from NCI studies against leukemia P388 are shown in an appendix (Appendix 1). In order to simplify the presentation of results we have extracted from these the minor active dose (MDA) against leukemia P388--for each compound. MDA is defined as the minor dose of the drug that reaches the minimal activity criteria of the NCI. For leukemia P388 this criteria on the basis of survival time is a minimal increase in survival of treated animals over a control resulting in a T/C≥120. In the following table the MDA for 14 examples are presented. In cases where none of the tested doses reached the MDA, the MDA is indicated as "NONE". The column "cytotoxic activity" has been extracted from U.S. Pat. No. 4,204,063. Data are presented in order of the highest to lowest cytotoxic activity.

HeLa cells = details: cytotoxic activity in vitro, monolayer; cited from earlier work

| Structure (SMILES) | response vs control in vivo at 30 mg/kg (leukemia P388; Mus musculus) [%] | response vs control in vivo at 60 mg/kg (leukemia P388; Mus musculus) [%] | response vs control in vivo at 120 mg/kg (leukemia P388; Mus musculus) [%] | response vs control in vivo at 240 mg/kg (leukemia P388; Mus musculus) [%] | minimal effective dose (leukemia P388; Mus musculus) [mg/kg] | STATUS (activity against leukemia P388) (leukemia P388) | ID50 in HeLa cells (HeLa cells) [µg/mL] | MDA against leukemia P388 (leukemia P388) | other results |
| --- | --- | --- | --- | --- | --- | --- | --- | --- | --- |
| O=C1c2cccc3cc(O)cc(c23)C(=O)N1CCN1CCOCC1 [Example 24] | 107 | 110 | 117 | 127 | 240 | T/C > 120 active | 3.5 (≈ 10.7 µM) | – | – |
| CCOC(=O)Nc1cc2c3c(cccc3c1)C(=O)N(CCN(C)C)C2=O [Example 28] | 123 | – | – | – | 30 | T/C > 120 active | 10.0 (≈ 28.1 µM) | – | – |
| COc1cc2c3c(cccc3c1)C(=O)N(CCN(C)C)C2=O [Example 26] | – | – | – | – | 18.9 | T/C > 120 active | 1.5 (≈ 5.03 µM) | – | – |
| CCOC(=O)Nc1cc2c3c(cccc3c1)C(=O)N(CCN1CCCC1)C2=O [Example 29] | 127 | 131 | 135 | 158 | 30 | T/C > 120 active | 10.0 (≈ 26.2 µM) | – | – |
| Nc1cc2c3c(cccc3c1)C(=O)N(CCN1CCOCC1)C2=O [Example 13] | – | 102 | 102 | 109 | – | None dose tested | 10.0 (≈ 30.7 µM) | NONE | – |
| CCN(CC)CCN1C(=O)c2cccc3cc(N)cc(c23)C1=O [Example 10] | – | – | – | – | 3.2 | T/C > 120 active | 3.0 (≈ 9.63 µM) | – | response vs control in vivo at 1 mg (leukemia P388; Mus musculus, P388, dose 1,56 mg as printed): 101%; response vs control in vivo at 1 mg (leukemia P388; Mus musculus, P388, dose 1,60 mg as printed): 100%; response vs control in vivo at 3 mg (leukemia P388; Mus musculus, P388, dose 3,12 mg as printed): 98%; response vs control in vivo at 3 mg (leukemia P388; Mus musculus, P388, dose 3,20 mg as printed): 108%; response vs control in vivo at 6 mg (leukemia P388; Mus musculus, P388, dose 6,25 mg as printed): 98%; response vs control in vivo at 6 mg (leukemia P388; Mus musculus, P388, dose 6,50 mg as printed): 107%; response vs control in vivo at 13 mg (leukemia P388; Mus musculus, P388, dose 13,00 mg as printed): 121%; response vs control in vivo at 25 mg (leukemia P388; Mus musculus, P388, dose 25,00 mg as printed): 114%; response vs control in vivo at 26 mg (leukemia P388; Mus musculus, P388, dose 26,00 mg as printed): 124%; response vs control in vivo at 50 mg (leukemia P388; Mus musculus, P388, dose 50,00 mg as printed): 160%; response vs control in vivo at 100 mg (leukemia P388; Mus musculus, P388, dose 100,00 mg as printed): < 100% |
| COc1cc2c3c(cccc3c1)C(=O)N(CCN1CCCC1)C2=O [Example 27] | – | – | – | – | – | None dose tested | 0.75 (≈ 2.31 µM) | NONE | response vs control in vivo at 17 mg/kg (leukemia P388; Mus musculus, P388, dose 17,30 mg/kg): 112%; response vs control in vivo at 34 mg/kg (leukemia P388; Mus musculus, P388, dose 34,70 mg/kg): 116%; response vs control in vivo at 50 mg/kg (leukemia P388; Mus musculus, P388, dose 50,00 mg/kg): 100%; response vs control in vivo at 69 mg/kg (leukemia P388; Mus musculus, P388, dose 69,30 mg/kg): 116%; response vs control in vivo at 100 mg/kg (leukemia P388; Mus musculus, P388, dose 100,00 mg/kg): 101%; response vs control in vivo at 200 mg/kg (leukemia P388; Mus musculus, P388, dose 200,00 mg/kg): 100%; T/C % (leukemia P388; dose 138,60 mg/kg): Toxic |
| Nc1cc2c3c(cccc3c1)C(=O)N(CCN1CCCC1)C2=O [Example 11] | – | – | – | – | 6.5 | T/C > 120 active | 1.5 (≈ 4.85 µM) | – | response vs control in vivo at 24 mg/kg (leukemia P388; Mus musculus, P388, dose 24,20 mg/kg): 160%; response vs control in vivo at 48 mg/kg (leukemia P388; Mus musculus, P388, dose 48,39 mg/kg): 96% |
| O=C1c2cccc3cc([N+](=O)[O-])cc(c23)C(=O)N1CCN1CCOCC1 [Example 4] | – | 96 | 96 | 100 | – | None dose tested | 6.0 (≈ 16.9 µM) | NONE | – |
| Nc1cc2c3c(cccc3c1)C(=O)N(CCN1CCCCC1)C2=O [Example 12] | – | 108 | 103 | 114 | – | None dose tested | 8.0 (≈ 24.7 µM) | NONE | – |
| CC(=O)Nc1cc2c3c(cccc3c1)C(=O)N(CCN(C)C)C2=O [Example 30] | – | < 100 | – | – | 3.75 | T/C > 120 active | 4.0 (≈ 12.3 µM) | – | response vs control in vivo at 3.75 mg/kg (leukemia P388; Mus musculus, P388, dose 3,75 mg/kg): 137%; response vs control in vivo at 7 mg/kg (leukemia P388; Mus musculus, P388, dose 7,50 mg/kg): 144%; T/C % (leukemia P388; dose 120,00 mg/kg): Toxic.; T/C % (leukemia P388; dose 240,00 mg/kg): Toxic. |
| CCN(CC)CCCN1C(=O)c2cccc3cc([N+](=O)[O-])cc(c23)C1=O [Example 3] | – | 108 | 103 | 114 | – | None dose tested | 20.0 (≈ 56.3 µM) | NONE | – |
| CC(=O)Nc1cc2c3c(cccc3c1)C(=O)N(CCN1CCCC1)C2=O [Example 31] | 186 | 184 | 107 | – | 30 | T/C > 120 active | 5.0 (≈ 14.2 µM) | – | – |
